Data as given in US11952344B2, “Heterocyclic compound and use thereof” (TAKEDA PHARMACEUTICAL COMPANY LIMITED, priority 2019, dated 2024).

How the values were obtained:
[1] = target: T1, NMDA receptor containing the NR2B subunit (Rattus norvegicus, UniProt Q00960); details: rodents; cited from earlier work
[2] = target: T2, NMDA receptor containing the NR2B subunit (Homo sapiens, UniProt Q13224); details: continuous intravenous administration; cited from earlier work
[3] = target: T2, NMDA receptor containing the NR2B subunit; details: in vivo; cited from earlier work
NMDA receptor [4] = details: in vivo; cited from earlier work
[5] = target: T3, Human NMDA (NR1/NR2B) Receptor (Homo sapiens, UniProt Q13224); assay: NR2B Ca2+ influx assay; assay type: cell-based; details: 10 μM compound; HEK293 cells expressing GRIN1 and GRIN2B; glutamic acid/glycine-induced Ca2+ influx, Fluo-4 fluorescence; read-out: inhibitory rate (10 μM compound concentration)
T3 construct: host or cells: HEK293
T3 sequence (Q13224 27-1484, other chains not shown): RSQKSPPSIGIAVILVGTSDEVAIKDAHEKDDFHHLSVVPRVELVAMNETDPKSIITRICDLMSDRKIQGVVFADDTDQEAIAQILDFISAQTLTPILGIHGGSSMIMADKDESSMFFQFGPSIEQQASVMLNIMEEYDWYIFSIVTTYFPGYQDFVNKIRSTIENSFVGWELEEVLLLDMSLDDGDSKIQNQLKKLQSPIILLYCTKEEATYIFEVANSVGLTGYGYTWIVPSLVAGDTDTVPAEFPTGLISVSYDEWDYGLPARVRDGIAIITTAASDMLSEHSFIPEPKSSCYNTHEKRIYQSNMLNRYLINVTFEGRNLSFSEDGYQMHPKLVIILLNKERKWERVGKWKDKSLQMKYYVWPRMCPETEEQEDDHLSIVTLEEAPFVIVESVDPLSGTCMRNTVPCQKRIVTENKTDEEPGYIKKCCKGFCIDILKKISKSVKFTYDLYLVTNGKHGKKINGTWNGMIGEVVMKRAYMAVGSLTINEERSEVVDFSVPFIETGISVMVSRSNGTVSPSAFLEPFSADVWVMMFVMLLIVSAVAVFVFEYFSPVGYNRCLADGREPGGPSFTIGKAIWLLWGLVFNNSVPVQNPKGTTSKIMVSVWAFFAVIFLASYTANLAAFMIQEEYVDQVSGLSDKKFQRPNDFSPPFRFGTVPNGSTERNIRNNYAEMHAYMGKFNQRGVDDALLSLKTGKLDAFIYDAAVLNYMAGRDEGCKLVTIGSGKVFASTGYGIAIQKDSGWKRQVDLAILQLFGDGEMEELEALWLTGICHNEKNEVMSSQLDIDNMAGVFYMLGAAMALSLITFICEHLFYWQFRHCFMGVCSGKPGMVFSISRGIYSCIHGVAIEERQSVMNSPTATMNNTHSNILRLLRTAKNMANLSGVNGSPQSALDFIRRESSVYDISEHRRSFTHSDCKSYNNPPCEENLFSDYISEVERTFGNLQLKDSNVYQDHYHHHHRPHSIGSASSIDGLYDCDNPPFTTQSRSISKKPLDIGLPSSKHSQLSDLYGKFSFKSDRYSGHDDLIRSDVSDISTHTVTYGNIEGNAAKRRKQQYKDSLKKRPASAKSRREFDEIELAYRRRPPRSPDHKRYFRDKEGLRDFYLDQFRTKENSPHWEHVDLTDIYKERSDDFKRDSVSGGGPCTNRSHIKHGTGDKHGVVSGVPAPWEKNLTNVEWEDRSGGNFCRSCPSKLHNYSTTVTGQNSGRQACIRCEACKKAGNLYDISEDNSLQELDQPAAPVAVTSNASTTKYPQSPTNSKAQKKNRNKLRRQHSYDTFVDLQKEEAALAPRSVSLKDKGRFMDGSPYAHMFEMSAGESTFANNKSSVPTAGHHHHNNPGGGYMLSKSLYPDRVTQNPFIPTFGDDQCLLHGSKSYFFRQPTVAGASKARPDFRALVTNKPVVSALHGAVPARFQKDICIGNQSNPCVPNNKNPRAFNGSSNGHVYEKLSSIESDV
Method in brief: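 HEK293 cells stably expressing human GRIN1/GRIN2B were tetracycline-induced for 2 h, loaded with Fluo-4AM and preincubated 15 min at room temperature with compound at 10 μM final. Ca2+ influx was triggered by glutamic acid and glycine and fluorescence (ex 480/em 540 nm) was recorded for 5 min. Inhibition was computed from cumulative fluorescence.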

[6] = target: T1, NMDA receptor containing the NR2B subunit; assay: [3H]MK-801 binding test in vivo (hippocampus); set-up: from tissue; host or cells: rat hippocampus (Sprague Dawley); species or system Sprague Dawley rats; details: po, [3H]MK-801 binding inhibitory rate, 1 mg/kg p.o., vehicle = 100% binding, excess MK-801 maleate = 0%
Experimental: Experimental Example 2 [^3H]MK-801 Binding Test In Vivo
In order to confirm “functional antagonistic action on an NMDA receptor containing the NR2B subunit in vivo” which the compound of the present invention has, binding test was performed using tritium-labeled form of MK-801 ((5R,10S)-5-methyl-10,11-dihydro-5H-5,10-epiminodibenzo[a,d][7]annulene) ([^3H]MK-801), which is a compound capable of binding to the opening site of the NMDA receptor.
The example compound (1 mg/kg/2 mL, 0.5% MC water) or vehicle ([…], 0.5% MC water) was orally administered (p.o.) to Sprague Dawley rats (body weight 180-260 g). After a certain time (around after time-to maximum blood concentration), [^3H]MK-801 (20 μCi/kg/mL, Muromachi Kikai) was intravenously administered. After 10 min, the rats were euthanized by decapitation, and subjected to craniotomy, and the hippocampus was collected. The collected hippocampus was homogenized in 30 volumes (30 mL per 1 g tissue) ice-cooled 20 mM Hepes (pH7.5, Hampton Research) using a homogenizer (T10 basic Ultra-Turrax) for […]. […] The filter was washed four times with ice-cooled saline (5 mL, Otsuka Pharmaceutical), put into a scintillation vial, and then 10 mL of liquid scintillator A (FUJIFILM Wako Pure Chemical Corporation) was added thereto, and the residual radioactivity was counted using liquid scintillation counter (ALOKA LSC-6100). Separately, the residual radioactivity in 100 μL of the homogenate before the filtration was counted in the same way. The value of [the residual radioactivity in the filter/the residual radioactivity in the 100 μL of the homogenate] was calculated as a [^3H]MK-801 binding rate to the NMDA receptor expressing in each individual hippocampus tissue. […] The difference between the percentage of [^3H]MK-801 binding rate in the group orally administered with the example compound and that in the vehicle control group (100%) was analyzed as [^3H]MK-801 binding inhibitory rate by the example compound.

NMDA receptor [7] = details: single intravenous administration; major depression and bipolar disorder; cited from earlier work

T1 sequence (Q00960 27-1482, other chains not shown): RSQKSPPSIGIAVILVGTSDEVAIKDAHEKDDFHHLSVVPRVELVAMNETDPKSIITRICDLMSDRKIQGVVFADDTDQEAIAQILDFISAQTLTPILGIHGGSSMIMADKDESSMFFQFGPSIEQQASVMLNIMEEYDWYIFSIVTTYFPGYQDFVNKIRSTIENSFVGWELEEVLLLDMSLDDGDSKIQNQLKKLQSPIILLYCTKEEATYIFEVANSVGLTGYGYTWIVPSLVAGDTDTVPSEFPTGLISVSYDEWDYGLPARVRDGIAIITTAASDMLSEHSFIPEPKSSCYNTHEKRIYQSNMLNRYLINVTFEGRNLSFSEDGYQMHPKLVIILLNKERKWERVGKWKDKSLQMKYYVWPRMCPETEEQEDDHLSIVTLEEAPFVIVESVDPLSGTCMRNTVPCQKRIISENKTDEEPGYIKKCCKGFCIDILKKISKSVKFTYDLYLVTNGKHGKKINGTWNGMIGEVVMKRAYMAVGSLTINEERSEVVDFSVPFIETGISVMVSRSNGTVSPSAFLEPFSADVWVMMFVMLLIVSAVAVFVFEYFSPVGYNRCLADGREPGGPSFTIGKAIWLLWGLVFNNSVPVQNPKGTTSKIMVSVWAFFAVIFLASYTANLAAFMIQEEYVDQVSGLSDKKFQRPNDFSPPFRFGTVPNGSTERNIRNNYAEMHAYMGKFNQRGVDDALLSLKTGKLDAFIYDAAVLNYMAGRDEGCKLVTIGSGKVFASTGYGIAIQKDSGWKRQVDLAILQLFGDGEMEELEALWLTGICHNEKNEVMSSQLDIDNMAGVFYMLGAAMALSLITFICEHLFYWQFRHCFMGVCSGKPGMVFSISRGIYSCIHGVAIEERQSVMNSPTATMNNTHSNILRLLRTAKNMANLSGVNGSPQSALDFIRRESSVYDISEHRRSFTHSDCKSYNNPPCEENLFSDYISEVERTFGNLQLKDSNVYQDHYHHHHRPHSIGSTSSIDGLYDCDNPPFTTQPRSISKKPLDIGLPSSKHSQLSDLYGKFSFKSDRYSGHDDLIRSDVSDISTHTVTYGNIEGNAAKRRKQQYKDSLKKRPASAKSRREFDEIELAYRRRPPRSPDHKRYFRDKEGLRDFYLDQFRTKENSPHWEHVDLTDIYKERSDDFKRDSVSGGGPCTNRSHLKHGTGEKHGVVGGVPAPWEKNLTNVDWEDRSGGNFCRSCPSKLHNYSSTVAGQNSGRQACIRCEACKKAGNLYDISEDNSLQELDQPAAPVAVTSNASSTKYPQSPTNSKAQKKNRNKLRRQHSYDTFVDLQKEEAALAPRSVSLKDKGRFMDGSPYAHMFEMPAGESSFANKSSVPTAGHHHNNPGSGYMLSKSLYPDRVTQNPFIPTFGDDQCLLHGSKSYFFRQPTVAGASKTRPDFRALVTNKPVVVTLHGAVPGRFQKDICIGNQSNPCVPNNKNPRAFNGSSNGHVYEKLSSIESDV
T2 sequence (Q13224 27-1484, other chains not shown): as the sequence (Q13224 27-1484, other chains not shown) above

## C[C@@H](CN1CCC(Cc2ccccc2)CC1)[C@@H](O)c1ccc(O)cc1 [Ro25-6981]
[1]
  number of occurrence and depth of cortical spreading depression: suppress the number of occurrence and the depth of cortical spreading depression

## C[C@@H]([C@@H](O)c1ccc(O)cc1)N1CCC(O)(c2ccccc2)CC1 [CP-101, 606]
[1]
  number of occurrence and depth of cortical spreading depression: suppress the number of occurrence and the depth of cortical spreading depression
[2]
  improvement of treatment resistant-depression symptom: significantly improves treatment resistant-depression symptom

## CC(C(O)c1ccc(O)cc1)N1CCC(Cc2ccccc2)CC1 (centres unmarked) [Ifenprodil]
[3]
  pain sense threshold: the pain sense threshold increases

## CC12CC3CC(C)(C1)CC(N)(C3)C2 [memantine]
NMDA receptor [4]
  improvement of peripheral symptoms of dementia: partially improves peripheral symptoms of dementia

## COc1ncncc1CNC(=O)c1cc(F)c(OC(F)F)c(F)c1 [Example 63, 4-(difluoromethoxy)-3,5-difluoro-N-[(4-methoxypyrimidin-5-yl)methyl]benzamide]
[5]
  inhibition at 10 µM: 90%
[6]
  inhibition at 1 mg/kg: 10%

## CNC1(c2ccccc2Cl)CCCCC1=O (centres unmarked) [ketamine]
NMDA receptor [7]
  improvement of depression symptom: improves depression symptom accompanying major depression and bipolar disorder rapidly and in a sustained manner

## COc1cncc(CNC(=O)c2cnc(OC(F)F)c(F)c2)c1 [Example 42, 6-(difluoromethoxy)-5-fluoro-N-[(5-methoxypyridin-3-yl)methyl]pyridine-3-carboxamide]
[5]
  inhibition at 10 µM: 94%
[6]
  inhibition at 1 mg/kg: 14%

## COc1ncncc1CNC(=O)c1cnc(OC(F)F)c(F)c1 [Example 12, 6-(difluoromethoxy)-5-fluoro-N-[(4-methoxypyrimidin-5-yl)methyl]pyridine-3-carboxamide]
[5]
  inhibition at 10 µM: 92%
[6]
  inhibition at 1 mg/kg: 23%

## O=C(NCc1cncnc1OC1CC1)c1cnc(OC(F)F)c(Cl)c1 [Example 78, 5-chloro-N-{[4-(cyclopropyloxy)pyrimidin-5-yl]methyl}-6-(difluoromethoxy)pyridine-3-carboxamide]
[5]
  inhibition at 10 µM: 94%

## Cc1ccncc1CNC(=O)c1cnc(C2CC2)c(F)c1 [Example 46, 6-cyclopropyl-5-fluoro-N-[(4-methylpyridin-3-yl)methyl]pyridine-3-carboxamide]
[5]
  inhibition at 10 µM: 95%

## COc1ccncc1CNC(=O)c1cnc(OC(F)(F)F)c(F)c1 [Example 34, 5-fluoro-N-[(4-methoxypyridin-3-yl)methyl]-6-(trifluoromethoxy)pyridine-3-carboxamide]
[5]
  inhibition at 10 µM: 97%

## COc1ncncc1CNC(=O)c1cnc(OC(F)(F)F)c(F)c1 [Example 33, 5-fluoro-N-[(4-methoxypyrimidin-5-yl)methyl]-6-(trifluoromethoxy)pyridine-3-carboxamide]
[5]
  inhibition at 10 µM: 94%

## Cc1ccncc1CNC(=O)c1ccc(OC(F)(F)F)c(F)c1 [Example 49, 3-fluoro-N-[(4-methylpyridin-3-yl)methyl]-4-(trifluoromethoxy)-benzamide]
[5]
  inhibition at 10 µM: 94%
